Assay results as given in patent US20230416205A1, “COMPOUNDS, COMPOSITIONS, AND METHODS” (Denali Therapeutics Inc, priority 2020, published 2023).
Like-named read-outs stand apart in the source and are kept apart here.

Tested on: NLRP3
Test: IL-1β secretion assay in PMA-differentiated, LPS/nigericin-stimulated THP-1 cells (384-well, ELISA read-out)
Assay type: cell-based, human
Conditions: Homo sapiens
In short: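 Secreted IL-1β quantified by capture ELISA from supernatants of PMA-differentiated THP-1 cells (30K per well). Sequence: LPS 25 ng/mL priming 2 h, compound 1 h, nigericin 2 h; dose-responses normalized between high (LPS plus 5 μM nigericin) and low (LPS alone) controls.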

[1] = THP-1, IL-1β secretion, PMA-differentiated THP-1 cells, LPS then nigericin stimulation, ELISA read at 450 nm, read-out: Activity
[2] = THP-1, Table 4, IL-1β secretion, LPS/nigericin-stimulated THP-1 cells, read-out: IC50

| SMILES | IC50 [1] [µM] | IC50 [2] [µM] |
| --- | --- | --- |
| O=C(CN1CC2(CC2)c2cc(Br)ccc2C1=O)NCc1ncco1 [Example 119, 2-(6-bromo-1-oxospiro[3H-isoquinoline-4,1′-cyclopropane]-2-yl)-N-(1,3-oxazol-2-ylmethyl)acetamide] | > 15 | 30.1 |
| Cn1ccnc1CNC(=O)CN1CC2(CC2)c2cc(Br)ccc2C1=O [Example 120, 2-(6-bromo-1-oxospiro[3H-isoquinoline-4,1′-cyclopropane]-2-yl)-N-[(1-methylimidazol-2-yl)methyl]acetamide] | > 15 | 24.8 |
| O=C(CN1CC2(CC2)c2cc(Br)ccc2C1=O)NCCn1ccnc1 [Example 121, 2-(6-bromo-1-oxospiro[3H-isoquinoline-4,1′-cyclopropane]-2-yl)-N-(2-imidazol-1-ylethyl)acetamide] | 10 to 15 | 12.1 |
| O=C(CN1CC2(CC2)c2cc(Br)ccc2C1=O)NCc1ccncc1 [Example 122, 2-(6-bromo-1-oxospiro[3H-isoquinoline-4,1′-cyclopropane]-2-yl)-N-(pyridin-4-ylmethyl)acetamide] | > 15 | 29.9 |
| CN(Cc1cnn(C)c1)C(=O)CN1CC2(CC2)c2cc(Br)ccc2C1=O [Example 123, 2-(6-bromo-1-oxospiro[3H-isoquinoline-4,1′-cyclopropane]-2-yl)-N-methyl-N-[(1-methylpyrazol-4-yl)methyl]acetamide] | > 15 | 34.9 |
| Cn1nccc1CNC(=O)CN1CC2(CC2)c2cc(Br)ccc2C1=O [Example 124, 2-(6-bromo-1-oxospiro[3H-isoquinoline-4,1′-cyclopropane]-2-yl)-N-[(2-methylpyrazol-3-yl)methyl]acetamide] | > 15 | 27.7 |
| O=C(CN1CC2(CC2)c2cc(Br)ccc2C1=O)N1Cc2cccnc2C1 [Example 125, 6-bromo-2-[2-(5,7-dihydropyrrolo[3,4-b]pyridin-6-yl)-2-oxoethyl]spiro[3H-isoquinoline-4,1′-cyclopropane]-1-one] | > 15 | 26.7 |
| Cn1nc(C2CC2)cc1NC(=O)CN1CC2(CC2)c2cc(Br)ccc2C1=O [Example 126, 2-(6-bromo-1-oxospiro[3H-isoquinoline-4,1′-cyclopropane]-2-yl)-N-(5-cyclopropyl-2-methylpyrazol-3-yl)acetamide] | > 15 | 15.4 |
| O=C(CN1CC2(CC2)c2cc(Br)ccc2C1=O)Nc1ccccc1 [Example 127, 2-(6-bromo-1-oxospiro[3H-isoquinoline-4,1′-cyclopropane]-2-yl)-N-phenylacetamide] | < 10 | 1.67 |
| O=C(CN1CC2(CC2)c2cc(Br)ccc2C1=O)NCCN1CCOCC1 [Example 128, 2-(6-bromo-1-oxospiro[3H-isoquinoline-4,1′-cyclopropane]-2-yl)-N-(2-morpholin-4-ylethyl)acetamide] | 10 to 15 | 12 |
| O=C(CN1CC2(CC2)c2cc(Br)ccc2C1=O)NC1Cc2ccccc2C1 [Example 129, 2-(6-bromo-1-oxospiro[3H-isoquinoline-4,1′-cyclopropane]-2-yl)-N-(2,3-dihydro-1H-inden-2-yl)acetamide] | < 10 | 7.2 |
| O=C(CN1CC2(CC2)c2cc(Br)ccc2C1=O)Nc1ccc2ncccc2c1 [Example 130, 2-(6-bromo-1-oxospiro[3H-isoquinoline-4,1′-cyclopropane]-2-yl)-N-quinolin-6-ylacetamide] | < 10 | 1.23 |
| O=C(CN1CC2(CC2)c2cc(Br)ccc2C1=O)Nc1cnc2ccccc2c1 [Example 131, 2-(6-bromo-1-oxospiro[3H-isoquinoline-4,1′-cyclopropane]-2-yl)-N-quinolin-3-ylacetamide] | < 10 | 7.7 |
| O=C(CN1CC2(CC2)c2cc(Br)ccc2C1=O)NCC(O)c1ccc(F)cc1 (stereo not drawn) [Example 132, 2-(6-bromo-1-oxospiro[3H-isoquinoline-4,1′-cyclopropane]-2-yl)-N-[2-(4-fluorophenyl)-2-hydroxyethyl]acetamide] | > 15 | 29.7 |
| O=C(CN1CC2(CC2)c2cc(Br)ccc2C1=O)NCCC(F)(F)F [Example 133, 2-(6-bromo-1-oxospiro[3H-isoquinoline-4,1′-cyclopropane]-2-yl)-N-(3,3,3-trifluoropropyl)acetamide] | < 10 | 9.24 |
| CC(C)(C#N)NC(=O)CN1CC2(CC2)c2cc(Br)ccc2C1=O [Example 134, 2-(6-bromo-1-oxospiro[3H-isoquinoline-4,1′-cyclopropane]-2-yl)-N-(2-cyanopropan-2-yl)acetamide] | > 15 |  |
| O=C(CN1CC2(CC2)c2cc(Br)ccc2C1=O)Nc1ccc2c(c1)CCO2 [Example 135, 2-(6-bromo-1-oxospiro[3H-isoquinoline-4,1′-cyclopropane]-2-yl)-N-(2,3-dihydro-1-benzofuran-5-yl)acetamide] | < 10 | 1.22 |

| SMILES | IC50 [1] [µM] | IC50 [2] [µM] |
| --- | --- | --- |
| O=C(CN1CC2(CC2)c2cc(Br)ccc2C1=O)Nc1ccc2cnccc2c1 [Example 136, 2-(6-bromo-1-oxospiro[3H-isoquinoline-4,1′-cyclopropane]-2-yl)-N-isoquinolin-6-ylacetamide] | < 10 |  |
| CS(=O)(=O)NCCNC(=O)CN1CC2(CC2)c2cc(Br)ccc2C1=O [Example 137, 2-(6-bromo-1-oxospiro[3H-isoquinoline-4,1′-cyclopropane]-2-yl)-N-[2-(methanesulfonamido)ethyl]acetamide] | > 15 | 21.9 |
| COCCn1cc(NC(=O)CN2CC3(CC3)c3cc(Br)ccc3C2=O)cn1 [Example 138, 2-(6-bromo-1-oxospiro[3H-isoquinoline-4,1′-cyclopropane]-2-yl)-N-[1-(2-methoxyethyl)pyrazol-4-yl]acetamide] | > 15 | 20.5 |
| CS(=O)(=O)CCNC(=O)CN1CC2(CC2)c2cc(Br)ccc2C1=O [Example 139, 2-(6-bromo-1-oxospiro[3H-isoquinoline-4,1′-cyclopropane]-2-yl)-N-(2-methylsulfonylethyl)acetamide] | > 15 | 26.4 |
| O=C(CN1CC2(CC2)c2cc(Br)ccc2C1=O)Nc1ccc2ncsc2c1 [Example 140, N-(1,3-benzothiazol-6-yl)-2-(6-bromo-1-oxospiro[3H-isoquinoline-4,1′-cyclopropane]-2-yl)acetamide] | < 10 | 0.889 |
| Cn1ncc2cc(NC(=O)CN3CC4(CC4)c4cc(Br)ccc4C3=O)ccc21 [Example 141, 2-(6-bromo-1-oxospiro[3H-isoquinoline-4,1′-cyclopropane]-2-yl)-N-(1-methylindazol-5-yl)acetamide] | < 10 | 1.23 |
| Cc1nc(-c2cccc(NC(=O)CN3CC4(CC4)c4cc(Br)ccc4C3=O)c2)cs1 [Example 142, 2-(6-bromo-1-oxospiro[3H-isoquinoline-4,1′-cyclopropane]-2-yl)-N-[3-(2-methyl-1,3-thiazol-4-yl)phenyl]acetamide] | < 10 | 1.78 |
| Cc1nc2ccc(NC(=O)CN3CC4(CC4)c4cc(Br)ccc4C3=O)cc2s1 [Example 143, 2-(6-bromo-1-oxospiro[3H-isoquinoline-4,1′-cyclopropane]-2-yl)-N-(2-methyl-1,3-benzothiazol-6-yl)acetamide] | < 10 | 1.41 |
| Cc1cc(NC(=O)CN2CC3(CC3)c3cc(Br)ccc3C2=O)n(C)n1 [Example 144, 2-(6-bromo-1-oxospiro[3H-isoquinoline-4,1′-cyclopropane]-2-yl)-N-(2,5-dimethylpyrazol-3-yl)acetamide] | < 10 | 3.91 |
| O=C(CN1CC2(CC2)c2cc(Br)ccc2C1=O)Nc1nc2ccccc2[nH]1 [Example 145, N-(1H-benzimidazol-2-yl)-2-(6-bromo-1-oxospiro[3H-isoquinoline-4,1′-cyclopropane]-2-yl)acetamide] | < 10 | 2.66 |
| O=C(CN1CC2(CC2)c2cc(Br)ccc2C1=O)Nc1ccc2scnc2c1 [Example 146, N-(1,3-benzothiazol-5-yl)-2-(6-bromo-1-oxospiro[3H-isoquinoline-4,1′-cyclopropane]-2-yl)acetamide] | < 10 | 2.74 |
| Cn1cnc2cc(NC(=O)CN3CC4(CC4)c4cc(Br)ccc4C3=O)ccc21 [Example 147, 2-(6-bromo-1-oxospiro[3H-isoquinoline-4,1′-cyclopropane]-2-yl)-N-(1-methylbenzimidazol-5-yl)acetamide] | < 10 | 8.12 |
| O=C(CN1CC2(CC2)c2cc(Br)ccc2C1=O)Nc1cccc2ccncc12 [Example 148, 2-(6-bromo-1-oxospiro[3H-isoquinoline-4,1′-cyclopropane]-2-yl)-N-isoquinolin-8-ylacetamide] | < 10 | 1.79 |
| Cc1cc(NC(=O)CN2CC3(CC3)c3cc(Br)ccc3C2=O)n(-c2ccccc2)n1 [Example 149, 2-(6-bromo-1-oxospiro[3H-isoquinoline-4,1′-cyclopropane]-2-yl)-N-(5-methyl-2-phenylpyrazol-3-yl)acetamide] | < 10 | 6.58 |
| Cc1cc(C)nc(NC(=O)CN2CC3(CC3)c3cc(Br)ccc3C2=O)c1 [Example 150, 2-(6-bromo-1-oxospiro[3H-isoquinoline-4,1′-cyclopropane]-2-yl)-N-(4,6-dimethylpyridin-2-yl)acetamide] | < 10 | 2.1 |
| O=C(CN1CC2(CC2)c2cc(Br)ccc2C1=O)NCc1cccnc1C(F)(F)F [Example 151] | < 10 | 9.06 |
| O=C(CN1CC2(CC2)c2cc(Br)ccc2C1=O)Nc1ccnn1-c1ccccc1 [Example 152, 2-(6-bromo-1-oxospiro[3H-isoquinoline-4,1′-cyclopropane]-2-yl)-N-(2-phenylpyrazol-3-yl)acetamide] | > 15 | 21.6 |
